{"source": "BindingDB's records for doi:10.1016/j.bioorg.2017.03.012", "about": "(Alexandria University, 2017)", "key": {"[1]": {"molecular_target": "T1, Polyunsaturated fatty acid 5-lipoxygenase (Homo sapiens, UniProt P09917)", "T1 sequence (P09917 whole entry)": "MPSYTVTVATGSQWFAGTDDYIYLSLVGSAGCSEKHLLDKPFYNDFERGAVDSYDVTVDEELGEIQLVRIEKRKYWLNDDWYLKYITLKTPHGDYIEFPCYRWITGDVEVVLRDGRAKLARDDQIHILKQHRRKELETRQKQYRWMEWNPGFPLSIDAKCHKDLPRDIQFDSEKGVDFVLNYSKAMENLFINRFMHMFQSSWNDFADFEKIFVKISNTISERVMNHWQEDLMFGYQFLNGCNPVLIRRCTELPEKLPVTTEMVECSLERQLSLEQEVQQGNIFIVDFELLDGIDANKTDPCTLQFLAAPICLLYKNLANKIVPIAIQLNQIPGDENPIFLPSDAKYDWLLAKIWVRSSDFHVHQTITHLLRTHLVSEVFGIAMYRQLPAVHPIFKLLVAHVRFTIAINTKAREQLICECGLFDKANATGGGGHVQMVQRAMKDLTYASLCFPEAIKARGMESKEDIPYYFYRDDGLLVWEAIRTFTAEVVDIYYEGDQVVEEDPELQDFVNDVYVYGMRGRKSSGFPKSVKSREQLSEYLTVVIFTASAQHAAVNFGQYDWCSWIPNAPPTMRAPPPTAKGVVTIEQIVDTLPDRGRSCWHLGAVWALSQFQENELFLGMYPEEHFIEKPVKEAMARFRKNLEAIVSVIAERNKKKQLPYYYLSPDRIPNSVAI", "assay": "In Vitro Lipoxygenase (LOX) Inhibitory Assay", "protocol": "All the newly synthesized compounds were also evaluated in vitro for their ability to inhibit lipoxygenase enzyme. This was carried out using Abnova lipoxygenase inhibitor screening assay kit (Catalog No. (KA1329). Inhibitors were dissolved in DMSO and were added to the assay in a final volume of 10 μl before initiating with substrate. Three concentrations were prepared (25, 50 and 100 μM) and the concentration that produced 50% enzyme inhibition was determined according to manufacturer instructions [Plačkov et al., Free Radic. Biol. Med., 97:223-235]."}, "[2]": {"molecular_target": "T2, Prostaglandin G/H synthase 2 (Ovis aries, UniProt P79208)", "T2 sequence (P79208 whole entry)": "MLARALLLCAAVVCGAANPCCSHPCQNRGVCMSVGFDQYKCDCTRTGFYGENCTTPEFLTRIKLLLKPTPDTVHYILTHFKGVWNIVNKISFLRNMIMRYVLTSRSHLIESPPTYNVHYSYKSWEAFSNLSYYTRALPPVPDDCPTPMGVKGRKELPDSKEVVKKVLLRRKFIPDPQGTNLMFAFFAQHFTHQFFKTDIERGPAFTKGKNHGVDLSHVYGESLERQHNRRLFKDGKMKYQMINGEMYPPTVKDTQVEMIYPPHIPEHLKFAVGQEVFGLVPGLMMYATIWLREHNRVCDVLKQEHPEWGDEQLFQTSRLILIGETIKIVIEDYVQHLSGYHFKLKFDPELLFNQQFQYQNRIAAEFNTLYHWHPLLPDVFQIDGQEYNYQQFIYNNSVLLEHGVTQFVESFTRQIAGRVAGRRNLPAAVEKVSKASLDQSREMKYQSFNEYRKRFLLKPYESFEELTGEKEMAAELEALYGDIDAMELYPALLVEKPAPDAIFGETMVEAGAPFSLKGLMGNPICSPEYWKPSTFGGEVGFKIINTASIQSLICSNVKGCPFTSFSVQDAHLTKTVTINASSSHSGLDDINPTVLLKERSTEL", "assay": "In Vitro COX-1 and COX-2 Inhibitory Assay"}, "[3]": {"molecular_target": "T3, Prostaglandin G/H synthase 1 (Ovis aries, UniProt P05979)", "T3 sequence (P05979 whole entry)": "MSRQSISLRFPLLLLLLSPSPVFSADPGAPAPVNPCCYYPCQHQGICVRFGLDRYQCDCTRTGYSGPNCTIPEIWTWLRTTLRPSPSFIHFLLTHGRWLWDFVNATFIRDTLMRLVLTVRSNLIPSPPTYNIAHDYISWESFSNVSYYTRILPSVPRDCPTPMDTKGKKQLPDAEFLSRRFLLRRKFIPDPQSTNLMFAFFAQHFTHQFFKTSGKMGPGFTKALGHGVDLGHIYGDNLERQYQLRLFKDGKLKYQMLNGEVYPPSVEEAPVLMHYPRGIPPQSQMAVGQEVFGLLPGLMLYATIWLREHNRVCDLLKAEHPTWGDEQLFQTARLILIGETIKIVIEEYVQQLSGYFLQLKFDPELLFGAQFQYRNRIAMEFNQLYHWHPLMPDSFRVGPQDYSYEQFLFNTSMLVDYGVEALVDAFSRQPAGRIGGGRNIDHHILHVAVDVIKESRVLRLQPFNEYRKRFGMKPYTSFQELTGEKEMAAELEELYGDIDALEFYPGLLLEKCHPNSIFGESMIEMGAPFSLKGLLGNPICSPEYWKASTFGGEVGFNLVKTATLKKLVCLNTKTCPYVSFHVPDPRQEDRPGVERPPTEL", "assay": "In Vitro COX-1 and COX-2 Inhibitory Assay"}}, "data": [{"compound": "COc1cc(/C=C2\\SC(=S)N(NC(=O)c3sc4ccccc4c3Cl)C2=O)ccc1O", "note": "[3-Chloro-N-[5-(4-hydroxy-3-methoxybenzylidene)-4-oxo-2-thioxothiazolidin-3-yl]benzo [b]thiophene-2-carboxamide (5g)]", "values": [{"measurement": "IC50", "setting": "[1]", "value": 6.91, "unit": "µM"}, {"measurement": "IC50", "setting": "[2]", "value": 4220, "unit": "nM"}, {"measurement": "IC50", "setting": "[3]", "value": 10.4, "unit": "µM"}]}, {"compound": "COc1ccc(/C=C2\\SC(=S)N(NC(=O)c3sc4ccccc4c3Cl)C2=O)cc1", "note": "[3-Chloro-N-[5-(4-methoxybenzylidene)-4-oxo-2-thioxothiazolidin-3-yl]benzo[b]thiophene-2-carboxamide (5e)]", "values": [{"measurement": "IC50", "setting": "[1]", "value": 4.97, "unit": "µM"}, {"measurement": "IC50", "setting": "[2]", "value": 1890, "unit": "nM"}, {"measurement": "IC50", "setting": "[3]", "value": 6.3, "unit": "µM"}]}, {"compound": "O=C(NN1C(=O)/C(=C/c2cn(-c3ccccc3)nc2-c2ccccc2)SC1=S)c1sc2ccccc2c1Cl", "note": "[3-Chloro-N-{5-[(1,3-diphenyl-1H-pyrazol-4-yl)methylene]-4-oxo-2-thioxothiazolidin-3-yl}benzo[b]thiophene-2-carboxamide (5a)]", "values": [{"measurement": "IC50", "setting": "[1]", "value": 3.97, "unit": "µM"}, {"measurement": "IC50", "setting": "[2]", "value": 1490, "unit": "nM"}, {"measurement": "IC50", "setting": "[3]", "value": 5.1, "unit": "µM"}]}, {"compound": "O=C(NN1C(=O)CSC1=S)c1cc2ccccc2o1", "note": "[N-(4-Oxo-2-thioxothiazolidin-3-yl)benzofuran-2-carboxamide (9)]", "values": [{"measurement": "IC50", "setting": "[1]", "value": 5.92, "unit": "µM"}, {"measurement": "IC50", "setting": "[2]", "value": 1830, "unit": "nM"}, {"measurement": "IC50", "setting": "[3]", "value": 6.8, "unit": "µM"}]}, {"compound": "O=C(NN1C(=O)/C(=C/c2ccc(Cl)cc2)SC1=S)c1sc2ccccc2c1Cl", "note": "[3-Chloro-N-[5-(4-chlorobenzylidene)-4-oxo-2-thioxothiazolidin-3-yl]benzo[b]thiophene-2-carboxamide (5f)]", "values": [{"measurement": "IC50", "setting": "[1]", "value": 3.74, "unit": "µM"}, {"measurement": "IC50", "setting": "[2]", "value": 1230, "unit": "nM"}, {"measurement": "IC50", "setting": "[3]", "value": 4.9, "unit": "µM"}]}, {"compound": "O=C1Nc2ccccc2/C1=C1\\SC(=S)N(NC(=O)c2sc3ccccc3c2Cl)C1=O", "note": "[3-Chloro-N-[4-oxo-5-(2-oxoindolin-3-ylidene)-2-thioxothiazolidin-3-yl]benzo[b]thiophene-2-carboxamide (5i)]", "values": [{"measurement": "IC50", "setting": "[1]", "value": 6.87, "unit": "µM"}, {"measurement": "IC50", "setting": "[2]", "value": 1560, "unit": "nM"}, {"measurement": "IC50", "setting": "[3]", "value": 5.9, "unit": "µM"}]}, {"compound": "COc1ccc(-c2nn(-c3ccccc3)cc2/C=C2\\SC(=S)N(NC(=O)c3sc4ccccc4c3Cl)C2=O)cc1", "note": "[3-Chloro-N-(5-{[3-(4-methoxyphenyl)-1-phenyl-1H-pyrazol-4-yl]methylene}-4-oxo-2-thioxothiazolidin-3-yl)benzo[b]thiophene-2-carboxamide (5b)]", "values": [{"measurement": "IC50", "setting": "[1]", "value": 8.71, "unit": "µM"}, {"measurement": "IC50", "setting": "[2]", "value": 2610, "unit": "nM"}, {"measurement": "IC50", "setting": "[3]", "value": 7.6, "unit": "µM"}]}, {"compound": "COc1ccc(/C=C2\\SC(=S)N(NC(=O)c3sc4ccccc4c3Cl)C2=O)cc1OC", "note": "[3-Chloro-N-[5-(3,4-dimethoxybenzylidene)-4-oxo-2-thioxothiazolidin-3-yl]benzo [b]thiophene-2-carboxamide (5h)]", "values": [{"measurement": "IC50", "setting": "[3]", "value": 3.4, "unit": "µM"}]}, {"compound": "O=C(NN1C(=O)/C(=C/c2cn(-c3ccccc3)nc2-c2ccc(Br)cc2)SC1=S)c1cc2ccccc2o1", "note": "[N-(5-{[3-(4-Bromophenyl)-1-phenyl-1H-pyrazol-4-yl]methylene}-4-oxo-2-thioxothiazolidin-3-yl)benzofuran-2-carboxamide (10c)]", "values": [{"measurement": "IC50", "setting": "[1]", "value": 10.2, "unit": "µM"}, {"measurement": "IC50", "setting": "[2]", "value": 5320, "unit": "nM"}, {"measurement": "IC50", "setting": "[3]", "value": 13.4, "unit": "µM"}]}, {"compound": "Cc1ccc(Cl)c(Nc2ccccc2C(=O)O)c1Cl", "values": [{"measurement": "IC50", "setting": "[1]", "value": 5.64, "unit": "µM"}]}, {"compound": "COc1ccc(-c2nn(-c3ccccc3)cc2/C=C2\\SC(=S)N(NC(=O)c3cc4ccccc4o3)C2=O)cc1", "note": "[N-(5-{[3-(4-Methoxyphenyl)-1-phenyl-1H-pyrazol-4-yl]methylene}-4-oxo-2-thioxothiazolidin-3-yl)benzofuran-2-carboxamide (10b)]", "values": [{"measurement": "IC50", "setting": "[1]", "value": 6.91, "unit": "µM"}, {"measurement": "IC50", "setting": "[2]", "value": 2740, "unit": "nM"}, {"measurement": "IC50", "setting": "[3]", "value": 8.7, "unit": "µM"}]}, {"compound": "O=C(NN1C(=O)/C(=C/c2ccccc2)SC1=S)c1sc2ccccc2c1Cl", "note": "[N-(5-Benzylidene-4-oxo-2-thioxothiazolidin-3-yl)-3-chlorobenzo[b]thiophene-2-carboxamide (5d)]", "values": [{"measurement": "IC50", "setting": "[1]", "value": 8.74, "unit": "µM"}, {"measurement": "IC50", "setting": "[2]", "value": 3120, "unit": "nM"}, {"measurement": "IC50", "setting": "[3]", "value": 10.6, "unit": "µM"}]}, {"compound": "O=C(NN1C(=O)/C(=C/c2cn(-c3ccccc3)nc2-c2ccccc2)SC1=S)c1cc2ccccc2o1", "note": "[N-{5-[(1,3-Diphenyl-1H-pyrazol-4-yl)methylene]-4-oxo-2-thioxothiazolidin-3-yl}benzofuran2-carboxamide (10a)]", "values": [{"measurement": "IC50", "setting": "[1]", "value": 9.21, "unit": "µM"}, {"measurement": "IC50", "setting": "[2]", "value": 4810, "unit": "nM"}, {"measurement": "IC50", "setting": "[3]", "value": 12.4, "unit": "µM"}]}, {"compound": "O=C(NN1C(=O)/C(=C/c2cn(-c3ccccc3)nc2-c2ccc(Br)cc2)SC1=S)c1sc2ccccc2c1Cl", "note": "[N-(5-{[3-(4-Bromophenyl)-1-phenyl-1H-pyrazol-4-yl]methylene}-4-oxo-2-thioxothiazolidin-3-yl)-3-chlorobenzo[b]thiophene-2-carboxamide (5c)]", "values": [{"measurement": "IC50", "setting": "[1]", "value": 9.51, "unit": "µM"}, {"measurement": "IC50", "setting": "[2]", "value": 4880, "unit": "nM"}, {"measurement": "IC50", "setting": "[3]", "value": 12.4, "unit": "µM"}]}, {"compound": "O=C(NN1C(=O)CSC1=S)c1sc2ccccc2c1Cl", "note": "[3-Chloro-N-(4-oxo-2-thioxothiazolidin-3-yl)benzo[b]thiophene-2-carboxamide (4)]", "values": [{"measurement": "IC50", "setting": "[1]", "value": 6.87, "unit": "µM"}, {"measurement": "IC50", "setting": "[2]", "value": 2430, "unit": "nM"}, {"measurement": "IC50", "setting": "[3]", "value": 8.7, "unit": "µM"}]}, {"compound": "Cc1ccc(-c2cc(C(F)(F)F)nn2-c2ccc(S(N)(=O)=O)cc2)cc1", "note": "[Celecoxib]", "values": [{"measurement": "IC50", "setting": "[1]", "value": 6.87, "unit": "µM"}]}]}
